The results in this text go back to patent publication US20240067693A1, “POLYPEPTIDES AND USES THEREOF” (MEDIMMUNE LIMITED, priority 2020, published 2024).

Numbered stars: 1 amine (or outer) side, 2 acyl side, 3 side chain; on linkers, the order of the positions; unused ones are H or OH. Bridge positions count the residues as written; N and C are the ends. Square brackets hold non-standard residues; d marks the D form. Side chains are listed from the residue outwards. Peptide text beside a SMILES is read from it. * marks the point of attachment. C20 diacid = O=C(O)CCCCCCCCCCCCCCCCCCC(=O)*; C18 diacid = O=C(O)CCCCCCCCCCCCCCCCC(=O)*; γGlu = O=C(O)[C@H](CCC(=O)[*:2])N[*:1]; αMeF = C[C@](N)(Cc1ccccc1)C(=O)O; Dab = NCC[C@H](N)C(=O)O; Aib = CC(C)(N)C(=O)O

Assay [1] concerns the target T1, human amylin receptor (calcitonin receptor co-expressed with receptor activity modifying protein, RAMP3) (hAMYR3) (Homo sapiens, UniProt O60896+P30988).
T1 construct: expressed in transfected cells
T1 sequence (P30988 25-474): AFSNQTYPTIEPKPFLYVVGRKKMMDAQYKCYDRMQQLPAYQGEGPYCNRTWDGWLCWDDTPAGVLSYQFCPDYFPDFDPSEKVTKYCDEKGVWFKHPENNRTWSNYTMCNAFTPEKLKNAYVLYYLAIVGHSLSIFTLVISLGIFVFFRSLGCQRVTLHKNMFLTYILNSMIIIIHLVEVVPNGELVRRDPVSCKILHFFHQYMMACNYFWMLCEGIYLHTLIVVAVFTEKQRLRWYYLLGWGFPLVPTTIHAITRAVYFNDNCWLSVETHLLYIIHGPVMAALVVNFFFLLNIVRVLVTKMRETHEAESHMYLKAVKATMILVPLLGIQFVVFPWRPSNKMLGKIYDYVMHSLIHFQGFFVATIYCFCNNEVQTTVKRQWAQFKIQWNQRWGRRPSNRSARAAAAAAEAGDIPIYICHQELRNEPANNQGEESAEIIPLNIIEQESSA
T1 sequence (O60896 24-148 partner): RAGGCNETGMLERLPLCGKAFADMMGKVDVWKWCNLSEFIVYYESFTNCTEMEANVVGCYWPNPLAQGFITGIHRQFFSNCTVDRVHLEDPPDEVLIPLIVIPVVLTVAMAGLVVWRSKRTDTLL
Briefly: cAMP production in 1321N1 cells with stable recombinant expression of human amylin receptor (hAMYR3). The format is cell-based. Particulars: for Ratio (selectivity hAMYR vs hCTR, ratio of EC50 values at the two receptors): EC50 hCTR / EC50 hAMYR3; for EC50: cAMP, 1321N1 cells, assay buffer with 0.1% BSA, read-out: EC50 (pM) hAMYR3. Summed up:
(§1)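 Receptor-expressing cells (human receptors in 1321N1, rat receptors in HEK) incubated 30 min at room temperature with peptide in HBSS/HEPES pH 7.4, 0.1% BSA, 0.5 mM IBMX. cAMP read by HTRF; EC50 from 4-parameter fit as % of maximal amylin or calcitonin response.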
A general note: cAMP levels reflect the balance of adenylyl cyclase and phosphodiesterase activity.

Assay [2] deals with T2, human calcitonin receptor (hCTR) (Homo sapiens, UniProt P30988).
T2 construct: expressed in transfected cells
T2 sequence (P30988 25-474): T1 sequence (P30988 25-474)
Briefly: cAMP production in 1321N1 cells with stable recombinant expression of human calcitonin receptor (hCTR). Particulars: cAMP, 1321N1 cells, assay buffer with 0.1% BSA; read-out: EC50 (pM) hCTR. Format: cell-based. In short, it runs like this: as §1

With `CC[C@H](C)[C@H](NC(=O)[C@@H]1CCCN1C(=O)CNC(=O)[C@](C)(Cc1ccccc1)NC(=O)[C@H](CC(N)=O)NC(=O)[C@H](CC(N)=O)NC(=O)[C@H](CO)NC(=O)[C@H](CO)NC(=O)[C@H](Cc1c[nH]cn1)NC(=O)[C@@H](NC(=O)[C@H](CC(C)C)NC(=O)[C@H](Cc1ccccc1)NC(=O)[C@H](CCN)NC(=O)[C@H](C)NC(=O)[C@H](CC(C)C)NC(=O)[C@H](CCCNC(=N)N)NC(=O)[C@H](CCC(N)=O)NC(=O)[C@@H](NC(=O)[C@H](C)NC(=O)[C@@H]1CSSC[C@H](NC(=O)[C@H](CCCCN)NC(=O)[C@@H](N)CCCCNC(=O)CC[C@H](NC(=O)CCCCCCCCCCCCCCCCC(=O)O)C(=O)O)C(=O)N[C@@H](CC(N)=O)C(=O)N[C@@H]([C@@H](C)O)C(=O)N[C@@H](C)C(=O)N[C@@H]([C@@H](C)O)C(=O)N1)[C@@H](C)O)C(C)C)C(=O)N[C@@H](CC(C)C)C(=O)N1CCC[C@H]1C(=O)N1CCC[C@H]1C(=O)N[C@H](C(=O)N[C@@H](CCC(=O)O)C(=O)N[C@H](C(=O)NCC(=O)N[C@@H](CO)C(=O)N[C@@H](CC(N)=O)C(=O)N[C@H](C(=O)N[C@@H](Cc1ccc(O)cc1)C(N)=O)[C@@H](C)O)C(C)C)[C@@H](C)O` [Peptide 32, K(γE-C18diacid)K[CNTATC]ATQRLA(Dab)FLVHSSNN(αMePhe)GPILPPTEVGSNTY-amide] (H-K([γGlu-C18 diacid])KCNTATCATQRLA[Dab]FLVHSSNN[αMeF]GPILPPTEVGSNTY-NH2; disulfide 3-8; N-terminus assumed), the “Ratio (selectivity hAMYR vs hCTR, ratio of EC50 values at the two receptors)” value in assay [1] amounted to 15. Moreover, the results for the EC50 in assay [1] and in assay [2] were 742 pM and 11100 pM, respectively.

Consider `CC[C@H](C)[C@H](NC(=O)[C@@H]1CCCN1C(=O)CNC(=O)[C@H](Cc1ccccc1)NC(=O)[C@H](CC(N)=O)NC(=O)[C@H](CC(N)=O)NC(=O)[C@H](CO)NC(=O)[C@H](CO)NC(=O)[C@H](Cc1c[nH]cn1)NC(=O)C(C)(C)NC(=O)[C@H](CC(C)C)NC(=O)[C@H](Cc1ccccc1)NC(=O)[C@H](CC(N)=O)NC(=O)[C@H](C)NC(=O)[C@H](CC(C)C)NC(=O)[C@H](CCCNC(=N)N)NC(=O)[C@H](CCC(N)=O)NC(=O)[C@@H](NC(=O)[C@H](C)NC(=O)[C@@H]1CSSC[C@H](NC(=O)[C@H](CCCCN)NC(=O)[C@@H](N)CCCCNC(=O)CC[C@H](NC(=O)CCCCCCCCCCCCCCCCC(=O)O)C(=O)O)C(=O)N[C@@H](CC(N)=O)C(=O)N[C@@H]([C@@H](C)O)C(=O)N[C@@H](C)C(=O)N[C@@H]([C@@H](C)O)C(=O)N1)[C@@H](C)O)C(=O)N[C@@H](CC(C)C)C(=O)N1CCC[C@H]1C(=O)N1CCC[C@H]1C(=O)N[C@H](C(=O)N[C@@H](CC(N)=O)C(=O)NC(C)(C)C(=O)NCC(=O)N[C@@H](CO)C(=O)N[C@@H](CC(N)=O)C(=O)N[C@H](C(=O)N[C@@H](Cc1ccc(O)cc1)C(N)=O)[C@@H](C)O)[C@@H](C)O` [Peptide 99, K(γE-C18diacid)K[CNTATC]ATQRLANFL(Aib)HSSNNFGPILPPTN(Aib)GSNTY-amide] (H-K([γGlu-C18 diacid])KCNTATCATQRLANFL[Aib]HSSNNFGPILPPTN[Aib]GSNTY-NH2; disulfide 3-8; N-terminus assumed), for which the “Ratio (selectivity hAMYR vs hCTR, ratio of EC50 values at the two receptors)” value in assay [1] is 0.5. Besides, the EC50 in assay [1] was determined as 3800 pM; in assay [2], 1820 pM.

For the molecule `CC[C@H](C)[C@H](NC(=O)[C@@H]1CCCN1C(=O)CNC(=O)[C@H](Cc1ccccc1)NC(=O)[C@H](CC(N)=O)NC(=O)C(C)(C)NC(=O)[C@H](CO)NC(=O)[C@H](CO)NC(=O)[C@H](Cc1c[nH]cn1)NC(=O)[C@@H](NC(=O)[C@H](CC(C)C)NC(=O)[C@H](Cc1ccccc1)NC(=O)[C@H](CC(N)=O)NC(=O)[C@H](C)NC(=O)[C@H](CC(C)C)NC(=O)[C@H](CCCNC(=N)N)NC(=O)[C@H](CCC(N)=O)NC(=O)[C@@H](NC(=O)[C@H](C)NC(=O)[C@@H]1CSSC[C@H](NC(=O)CC[C@H](NC(=O)CCCCCCCCCCCCCCCCC(=O)O)C(=O)O)C(=O)N[C@@H](CC(N)=O)C(=O)N[C@@H]([C@@H](C)O)C(=O)N[C@@H](C)C(=O)N[C@@H]([C@@H](C)O)C(=O)N1)[C@@H](C)O)C(C)C)C(=O)N[C@@H](CC(C)C)C(=O)N1CCC[C@H]1C(=O)N1CCC[C@H]1C(=O)N[C@H](C(=O)N[C@@H](CCCNC(=N)N)C(=O)N[C@H](C(=O)NCC(=O)N[C@@H](CO)C(=O)N[C@@H](CC(N)=O)C(=O)N[C@H](C(=O)N[C@@H](Cc1ccc(O)cc1)C(N)=O)[C@@H](C)O)C(C)C)[C@@H](C)O` [Peptide 68, (C18diacid-γE-[CNTATC]ATQRLANFLVHSS(Aib)NFGPILPPTRVGSNTY-amide] ({C18 diacid-γGlu}-CNTATCATQRLANFLVHSS[Aib]NFGPILPPTRVGSNTY-NH2; disulfide 1-6), the “Ratio (selectivity hAMYR vs hCTR, ratio of EC50 values at the two receptors)” value in assay [1] is recorded as 9. The 50% effective concentration (EC50) in assay [1] turned out to be 192 pM; in assay [2], 1770 pM.

For `CC[C@H](C)[C@H](NC(=O)[C@H](CO)NC(=O)[C@H](Cc1c[nH]cn1)NC(=O)[C@@H](NC(=O)[C@H](CC(C)C)NC(=O)[C@H](Cc1ccccc1)NC(=O)[C@H](CC(N)=O)NC(=O)[C@H](C)NC(=O)[C@H](CC(C)C)NC(=O)[C@H](CCCNC(=N)N)NC(=O)[C@H](CCC(N)=O)NC(=O)[C@@H](NC(=O)[C@H](C)NC(=O)[C@@H]1CSSC[C@H](NC(=O)[C@@H](N)CCCCNC(=O)CC[C@H](NC(=O)CC[C@H](NC(=O)CCCCCCCCCCCCCCCCCCC(=O)O)C(=O)O)C(=O)O)C(=O)N[C@@H](CC(N)=O)C(=O)N[C@@H]([C@@H](C)CC)C(=O)N[C@@H](C)C(=O)N[C@@H]([C@@H](C)O)C(=O)N1)[C@@H](C)O)C(C)C)C(=O)N[C@@H](C)C(=O)N[C@@H](CC(N)=O)C(=O)N[C@@H](Cc1ccccc1)C(=O)NCC(=O)N1CCC[C@H]1C(=O)N[C@H](C(=O)N[C@@H](CC(C)C)C(=O)N1CCC[C@H]1C(=O)N1CCC[C@H]1C(=O)N[C@H](C(=O)N[C@@H](CC(N)=O)C(=O)N[C@H](C(=O)NCC(=O)N[C@@H](CO)C(=O)N[C@@H](CCCNC(=N)N)C(=O)N[C@H](C(=O)N[C@@H](Cc1ccc(O)cc1)C(N)=O)[C@@H](C)O)C(C)C)[C@@H](C)O)[C@@H](C)CC` [Peptide 118] (H-K([γGlu-γGlu-C20 diacid])CNIATCATQRLANFLVHSIANFGPILPPTNVGSRTY-NH2; disulfide 2-7; N-terminus assumed), in assay [1], the “Ratio (selectivity hAMYR vs hCTR, ratio of EC50 values at the two receptors)” value is 2. The EC50 was 417 pM in assay [1] and 792 pM in assay [2].

With `CC[C@H](C)[C@H](NC(=O)[C@@H]1CCCN1C(=O)CNC(=O)[C@H](Cc1ccccc1)NC(=O)[C@H](CC(N)=O)NC(=O)C(C)(C)NC(=O)[C@H](CO)NC(=O)[C@H](CO)NC(=O)[C@H](Cc1c[nH]cn1)NC(=O)[C@H](CO)NC(=O)[C@H](CC(C)C)NC(=O)[C@H](Cc1ccccc1)NC(=O)[C@H](CC(N)=O)NC(=O)[C@H](C)NC(=O)[C@H](CC(C)C)NC(=O)[C@H](CCCNC(=N)N)NC(=O)[C@H](CCC(N)=O)NC(=O)[C@@H](NC(=O)[C@H](C)NC(=O)[C@@H]1CSSC[C@H](NC(=O)[C@H](CCCCN)NC(=O)[C@@H](N)CCCCNC(=O)CC[C@H](NC(=O)CCCCCCCCCCCCCCCCC(=O)O)C(=O)O)C(=O)N[C@@H](CC(N)=O)C(=O)N[C@@H]([C@@H](C)O)C(=O)N[C@@H](C)C(=O)N[C@@H]([C@@H](C)O)C(=O)N1)[C@@H](C)O)C(=O)N[C@@H](CC(C)C)C(=O)N1CCC[C@H]1C(=O)N1CCC[C@H]1C(=O)N[C@H](C(=O)N[C@@H](CC(N)=O)C(=O)N[C@H](C(=O)NCC(=O)N[C@@H](CO)C(=O)N[C@@H](CC(N)=O)C(=O)N[C@H](C(=O)N[C@@H](Cc1ccc(O)cc1)C(N)=O)[C@@H](C)O)C(C)C)[C@@H](C)O` [Peptide 37, K(γE-C18diacid)K[CNTATC]ATQRLANFLSHSS(Aib)NFGPILPPTNVGSNTY-amide] (H-K([γGlu-C18 diacid])KCNTATCATQRLANFLSHSS[Aib]NFGPILPPTNVGSNTY-NH2; disulfide 3-8), in assay [1], the “Ratio (selectivity hAMYR vs hCTR, ratio of EC50 values at the two receptors)” value worked out at 8 and the EC50 came out at 249 pM. The EC50 in assay [2] stood at 1960 pM.

In general, EC50 refers to the midpoint of the concentration-response curve.
